From ChEMBL document CHEMBL4033728, “Synthesis and structure-activity relationship study of novel quinazolinone-based inhibitors of MurA” (Bioorg Med Chem Lett, 2017)
Values after ≈ are worked out from the molar mass of the structure shown.

Assays:
[1] = tested on: Escherichia coli; experiment: Inhibition of Escherichia coli MurA assessed as residual enzyme activity at 100 uM using UDP-GlcNAc and PEP as substrate incubated for 15 mins by Malachite green method
[2] = tested on: Staphylococcus aureus; experiment: Antibacterial activity against Staphylococcus aureus ATCC 29213 incubated for 18 to 24 hrs by broth microdilution method; format: functional
[3] = tested on: Escherichia coli; experiment: Antibacterial activity against Escherichia coli ATCC 25922 incubated for 18 to 24 hrs by broth microdilution method; format: functional
[4] = Inhibition of Escherichia coli MurA using UDP-GlcNAc and PEP as substrate incubated for 15 mins by Malachite green method
[5] = Inhibition of Escherichia coli MurA
[6] = tested on: Escherichia coli; experiment: Antibacterial activity against Escherichia coli; format: functional
[7] = tested on: Staphylococcus aureus; experiment: Antibacterial activity against Staphylococcus aureus; format: functional

Row | SMILES | Activity [1] [%] | MIC [2] [µg/mL] | MIC [3] [µg/mL] | IC50 [4] [µM] | IC50 [5] [µM] | MIC [6] [µg/mL] | MIC [7] [µg/mL]
1 | CC(C)n1c(-c2ccco2)nc2ccccc2c1=O | 93 | 32 (≈ 126 µM) | > 128 |  |  |  | 
2 | O=c1[nH]c(/C=C/c2ccccc2)nc2ccccc12 |  | > 128 | > 128 | 51 |  |  | 
3 | O=c1[nH]c(-c2ccc(OCc3ccccc3)cc2)nc2ccccc12 |  | > 128 | > 128 | 36 |  |  | 
4 | O=c1[nH]c(-c2cc(F)cc3c2OCOC3)nc2ccccc12 | 99 | > 128 | > 128 |  |  |  | 
5 | O=c1[nH]c(-c2cccc(OCc3ccccc3)c2)nc2ccccc12 |  | > 128 | > 128 | 23 |  |  | 
6 | COc1ccc2occ(-c3nc4ccccc4c(=O)[nH]3)c(=O)c2c1 | 100 | > 128 | > 128 |  |  |  | 
7 | O=c1[nH]c(-c2cccc(OCc3ccc(F)cc3)c2)nc2ccccc12 |  | > 128 | > 128 | 19 |  |  | 
8 | O=c1[nH]c(-c2ccc3cccc(O)c3n2)nc2ccccc12 | 84 | > 128 | > 128 |  |  |  | 
9 | O=C(O)c1ccc(COc2ccc(-c3nc4ccccc4c(=O)[nH]3)cc2)cc1 | 92 | > 128 | > 128 |  |  |  | 
10 | O=c1[nH]c(-c2ccc(Br)o2)nc2ccccc12 |  | > 128 | > 128 | 56 |  |  | 
11 | Cc1ccc(-c2nc3ccccc3c(=O)[nH]2)o1 |  | > 128 | > 128 | 81 |  |  | 
12 | Oc1nc(-c2ccc(F)cc2)nc2ccccc12 | 89 | > 128 | > 128 |  |  |  | 
13 | O=c1[nH]c(-c2ccc(OCc3cccc(Cl)c3)cc2)nc2ccccc12 | 95 | > 128 | > 128 |  |  |  | 
14 | O=c1[nH]c(-c2ccc([N+](=O)[O-])cc2)nc2ccccc12 | 99 | > 128 | > 128 |  |  |  | 
15 | O=C(O)c1cccc(COc2ccc(-c3nc4ccccc4c(=O)[nH]3)cc2)c1 | 85 | > 128 | > 128 |  |  |  | 
16 | COC(=O)c1ccc(COc2ccc(-c3nc4ccccc4c(=O)[nH]3)cc2)cc1 | 100 | > 128 | > 128 |  |  |  | 
17 | CCCCCCCOc1ccc(-c2nc3ccccc3c(=O)[nH]2)cc1 |  | > 128 | > 128 | 84 |  |  | 
18 | C[C@@H]1O[C@@H]1P(=O)(O)O [FOSFOMYCIN] |  |  |  |  | 8.8 | 16 (≈ 116 µM) | 16 (≈ 116 µM)
19 | O=c1[nH]c(-c2ccc([N+](=O)[O-])o2)nc2ccccc12 |  | 8 (≈ 31.1 µM) | 1 (≈ 3.89 µM) | 47 |  |  | 
20 | O=C(O)c1ccc(-c2nc3ccccc3c(=O)[nH]2)cc1 | 86 | > 128 | > 128 |  |  |  | 
21 | N#Cc1ccc(-c2nc3ccccc3c(=O)[nH]2)cc1 | 54 | > 128 | > 128 |  |  |  | 
22 | COC(=O)c1ccc(COc2cccc(-c3nc4ccccc4c(=O)[nH]3)c2)cc1 |  | > 128 | > 128 | 21 |  |  | 

Row | SMILES | Activity [1] [%] | MIC [2] [µg/mL] | MIC [3] [µg/mL] | IC50 [4] [µM] | IC50 [5] [µM] | MIC [6] [µg/mL] | MIC [7] [µg/mL]
23 | O=c1[nH]c(-c2ccc(OCc3ccccc3)cc2)nc2ccsc12 |  | ≥ 128 | ≥ 128 | 22 to 30 |  |  | 
24 | O=c1[nH]c(-c2ccc(N3CCOCC3)nc2)nc2ccccc12 | 64 | > 128 | > 128 |  |  |  | 
25 | O=c1[nH]c(-c2cccc(OCc3cccc(Cl)c3)c2)nc2ccccc12 | 98 | > 128 | > 128 |  |  |  | 
26 | O=c1c2ccccc2nc(-c2ccco2)n1CCO | 91 | > 128 | > 128 |  |  |  | 
27 | CN(C)c1ccc(-c2nc(O)c3ccccc3n2)cc1 | 97 | > 128 | > 128 |  |  |  | 
28 | O=c1[nH]c(-c2ccc(O)cc2)nc2ccsc12 | 80 | > 128 | > 128 |  |  |  | 
29 | O=c1[nH]c(-c2ccc(-c3ccccc3)cc2)nc2ccccc12 |  | > 128 | > 128 | 21 |  |  | 
30 | O=c1[nH]c(-c2ccoc2)nc2ccccc12 | 91 | > 128 | > 128 |  |  |  | 
31 | O=c1[nH]c(-c2cccc(Br)c2)nc2ccccc12 | 65 | > 128 | > 128 |  |  |  | 
32 | O=c1[nH]c(-c2ccc3ccccc3n2)nc2ccccc12 | 100 | > 128 | > 128 |  |  |  | 
33 | O=c1[nH]c(-c2ccc(O)cc2)nc2ccccc12 | 91 | > 128 | > 128 |  |  |  | 
34 | O=c1[nH]c(-c2cccc(OCc3ccc(C(F)(F)F)cc3)c2)nc2ccccc12 | 88 | > 128 | > 128 |  |  |  | 
35 | O=Cc1ccc(-c2nc3ccccc3c(=O)[nH]2)cc1 | 58 | > 128 | > 128 |  |  |  | 
36 | O=c1[nH]c(-c2ccc(F)c(F)c2)nc2ccccc12 | 67 | > 128 | > 128 |  |  |  | 
37 | CC(C)n1c(-c2ccc([N+](=O)[O-])o2)nc2ccccc2c1=O |  | 8 (≈ 26.7 µM) | 2 (≈ 6.68 µM) | 87 |  |  | 
38 | O=c1[nH]c(-c2ccco2)nc2ccccc12 |  | > 128 | > 128 | 101 |  |  | 
39 | O=c1[nH]c(-c2ccc(CO)o2)nc2ccccc12 | 99 | > 128 | > 128 |  |  |  | 
40 | O=C(O)c1ccc(COc2cccc(-c3nc4ccccc4c(=O)[nH]3)c2)cc1 | 85 | > 128 | > 128 |  |  |  | 
41 | O=c1[nH]c(-c2ccc(-c3ccccc3)s2)nc2ccccc12 |  | > 128 | > 128 | 17 |  |  | 
42 | O=c1[nH]c(-c2cccc(Cl)c2)nc2ccccc12 | 68 | > 128 | > 128 |  |  |  | 
43 | O=c1c2ccccc2nc(-c2ccco2)n1Cc1ccccc1 | 100 | > 128 | > 128 |  |  |  | 
44 | O=c1[nH]c(-c2ccc3c(c2)OCO3)nc2ccccc12 | 83 | > 128 | > 128 |  |  |  | 

Row | SMILES | Activity [1] [%] | MIC [2] [µg/mL] | MIC [3] [µg/mL] | IC50 [4] [µM] | IC50 [5] [µM] | MIC [6] [µg/mL] | MIC [7] [µg/mL]
45 | O=c1[nH]c(-c2ccc(-c3ccccc3)s2)nc2ccsc12 |  | ≥ 128 | > 128 | 22 to 30 |  |  | 
46 | O=c1[nH]c(-c2cccc(Br)n2)nc2ccccc12 | 91 | > 128 | > 128 |  |  |  | 
47 | O=c1[nH]c(-c2ccc(-c3cc[nH]n3)o2)nc2ccccc12 | 100 | > 128 | > 128 |  |  |  | 
48 | Oc1nc(-c2ccncc2)nc2ccccc12 | 82 | > 128 | > 128 |  |  |  | 
49 | Oc1nc(-c2cccs2)nc2ccccc12 | 83 | > 128 | > 128 |  |  |  | 
50 | O=c1[nH]c(-c2cccc(OCc3ccc(Cl)cc3)c2)nc2ccccc12 |  | > 128 | > 128 | 8 |  |  | 
51 | COc1ccc(-c2nc(O)c3ccccc3n2)cc1 | 71 | > 128 | > 128 |  |  |  | 
52 | O=c1[nH]c(-c2ccc(-c3ccncc3)cc2)nc2ccccc12 | 100 | > 128 | > 128 |  |  |  | 
53 | O=c1[nH]c(-c2ccc(Cn3cncn3)nc2)nc2ccccc12 | 80 | > 128 | > 128 |  |  |  | 
54 | N#Cc1cccc(-c2nc3ccccc3c(=O)[nH]2)c1 | 62 | > 128 | > 128 |  |  |  | 
55 | O=C(O)Cn1c(-c2ccoc2)nc2ccccc2c1=O | 74 | > 128 | > 128 |  |  |  | 
56 | O=c1[nH]c(-c2ccnc(N3CCOCC3)c2)nc2ccccc12 | 70 | > 128 | > 128 |  |  |  | 
57 | COC(=O)Cn1c(-c2ccco2)nc2ccccc2c1=O | 66 | > 128 | > 128 |  |  |  | 
58 | Cc1ccc(COc2ccc(-c3nc4ccccc4c(=O)[nH]3)cc2)cc1 | 97 | > 128 | > 128 |  |  |  | 
59 | Cn1c(-c2ccco2)nc2ccccc2c1=O |  | > 128 | > 128 | 72 |  |  | 
60 | O=c1[nH]c(-c2ccc(Cl)cc2)nc2ccccc12 | 72 | > 128 | > 128 |  |  |  | 
61 | O=c1[nH]c(-c2cn3ccsc3n2)nc2ccccc12 | 82 | 128 (≈ 477 µM) | > 128 |  |  |  | 
62 | O=c1[nH]c(-c2ccco2)nc2ccsc12 |  | > 128 | > 128 | 94 |  |  | 
63 | Cn1cc[n+](C(Cn2cnc3ccc(Cl)cc3c2=O)c2cc3cc(Br)ccc3o2)c1.[Cl-] (configuration not stated) |  |  |  |  |  | 128 | 16
64 | COC(=O)c1cccc(COc2ccc(-c3nc4ccccc4c(=O)[nH]3)cc2)c1 | 100 | > 128 | > 128 |  |  |  | 
65 | O=c1[nH]c(-c2c[nH]cn2)nc2ccccc12 | 88 | > 128 | > 128 |  |  |  | 
66 | O=c1[nH]c(-c2cccc(O)c2)nc2ccccc12 | 80 | > 128 | > 128 |  |  |  | 
